The results in this text go back to ChEMBL document CHEMBL1201862, “PubChem BioAssay data set” (2004).

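Following 48 hours of exposure in 96-well plates, responses at five concentrations were used to interpolate endpoints linearly. GI50 is the concentration that inhibits growth by half.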 The source made the active and inactive calls. No stated cut-off is given here; in the data, active = GI50 up to about 1.1 µM and inactive = higher.

Some test systems named below: 786-0; SR; OVCAR-8; HT-29; OVCAR-4; A549; OVCAR-3; U-251; UO-31; MOLT-4; CCRF-CEM; UACC-62; UACC-257; TK-10; HL-60; SF-539; HOP-62; HCT-116; SF-295; HOP-92.
Holding throughout (assay): inhibition of tumour cell growth, NCI panel, 48 h

Take `CCOC(=O)c1cnc2c(ccc3ncccc32)c1OCC`: the GI50 is > 100 µM (inactive) with 786-0; 70.6 µM (inactive) with SR; > 100 µM (inactive) in the assay with OVCAR-8; > 100 µM (inactive) with HT-29; > 100 µM (inactive) in the assay with OVCAR-4; > 100 µM (inactive) with A549. Further, the GI50 was > 100 µM (inactive) in the assay with OVCAR-3; > 100 µM (inactive) in the assay on U-251; > 100 µM (inactive) in the assay with UO-31; 71.8 µM (inactive) with MOLT-4; 59.6 µM (inactive) with CCRF-CEM; > 100 µM (inactive) in the assay on UACC-62. The GI50 was > 100 µM (inactive) in the assay on UACC-257; 60.5 µM (inactive) in the assay on TK-10; > 100 µM (inactive) in the assay with HL-60; > 100 µM (inactive) in the assay on SF-539; > 100 µM (inactive) with HOP-62; > 100 µM (inactive) with HCT-116.

Regarding `Cc1cc([N+](=O)[O-])c(C)c2c1[nH]c1ccc(Cl)cc12`, the GI50 is > 100 µM (inactive) in the assay on 786-0; 45.7 µM (inactive) in the assay on SR; > 100 µM (inactive) in the assay on OVCAR-8; 89.5 µM (inactive) in the assay on HT-29; > 100 µM (inactive) in the assay on OVCAR-4; > 100 µM (inactive) in the assay on A549. The GI50 in the assay on OVCAR-3 was 38.9 µM (inactive); in the assay on UO-31, > 100 µM (inactive); in the assay on SF-295 it was > 100 µM (inactive); in the assay with MOLT-4 it was 23.6 µM (inactive); with CCRF-CEM, 23.2 µM (inactive); in the assay on UACC-257, > 100 µM (inactive). The GI50 in the assay with TK-10 is 84.7 µM (inactive); with HL-60 it was 58.7 µM (inactive); in the assay on SF-539, > 100 µM (inactive); in the assay with HOP-62, > 100 µM (inactive); with HCT-116, > 100 µM (inactive).

Turning to `C=CCC1(OCc2ccccc2)C(=O)C(=O)OC1C1COC(C)(C)O1` (centres undefined), the GI50 in the assay on 786-0, in the assay on SR, in the assay on OVCAR-8, in the assay on HT-29, in the assay on OVCAR-4 and with A549 was > 100 µM (inactive) throughout. For the same molecule, the GI50 with OVCAR-3, in the assay with U-251, in the assay with UO-31, with SF-295, in the assay with MOLT-4 and with CCRF-CEM was > 100 µM (inactive) throughout. Moreover, the GI50 in the assay on UACC-62, with UACC-257, in the assay with TK-10, in the assay with HL-60, in the assay on SF-539 and with HOP-62 was > 100 µM (inactive) in each case. The GI50 in the assay on HCT-116 was > 100 µM (inactive).

For the molecule `COC(=O)c1sc2c(=O)c(C(=O)OC)c(C(=O)OC)sc2c(=O)c1C(=O)OC`, the GI50 in the assay with 786-0 was > 100 µM (inactive); in the assay on SR, 37.8 µM (inactive); in the assay with OVCAR-8 it was > 100 µM (inactive); with HT-29, > 100 µM (inactive); with OVCAR-4, > 100 µM (inactive); in the assay on A549, > 100 µM (inactive). Further, the GI50 in the assay with OVCAR-3 was > 100 µM (inactive); with U-251, > 80.9 µM (inactive); in the assay on UO-31, > 100 µM (inactive); in the assay with SF-295 it was > 100 µM (inactive); in the assay on MOLT-4 it was 5.85 µM (inactive); with UACC-62, > 100 µM (inactive). The GI50 in the assay on UACC-257, in the assay with TK-10, with SF-539, with HOP-62, in the assay with HCT-116 and with HOP-92 was > 100 µM (inactive) each time.

As for `Cc1cn(CC2=NCCCN2)c(=O)[nH]c1=O`, the GI50 in the assay on 786-0, with SR, with OVCAR-8, in the assay on HT-29, with A549 and with U-251 was > 100 µM (inactive) throughout. Besides, the GI50 in the assay with UO-31, in the assay on SF-295, in the assay with MOLT-4, in the assay on CCRF-CEM, in the assay with UACC-62 and in the assay with UACC-257 was > 100 µM (inactive) throughout. In addition, the GI50 with TK-10, in the assay on HOP-62, in the assay with HCT-116 and with HOP-92 was > 100 µM (inactive) in each case.

Regarding `CCN(CC)CCCNC(=O)Cc1ccccc1Nc1c(Cl)cccc1Cl`, the GI50 is 0.465 µM (active) with 786-0; 9.48 µM (inactive) in the assay on SR; 16.2 µM (inactive) in the assay with OVCAR-8; 4.48 µM (inactive) with HT-29; 15.7 µM (inactive) in the assay with OVCAR-4; 18.3 µM (inactive) in the assay with A549. Also, the GI50 with OVCAR-3 is 16 µM (inactive); with U-251, 13 µM (inactive); with UO-31, 11.2 µM (inactive); with SF-295 it was 18 µM (inactive); with MOLT-4, 11.4 µM (inactive); with CCRF-CEM it was 11.7 µM (inactive). Also, the GI50 is 14.3 µM (inactive) in the assay with UACC-62; 4.03 µM (inactive) in the assay with UACC-257; 13.7 µM (inactive) in the assay with TK-10; 11.8 µM (inactive) in the assay on HL-60; 14.2 µM (inactive) in the assay on SF-539; 16 µM (inactive) in the assay with HOP-62. The GI50 with HCT-116 is 14 µM (inactive).

On to `CNc1ncc(-c2nnnn2-c2ccccc2)c(CN(C)C)n1`, for which the GI50 in the assay with 786-0, in the assay on SR, in the assay on OVCAR-8, in the assay with HT-29, in the assay with A549 and in the assay on OVCAR-3 was > 100 µM (inactive) throughout. Besides, the GI50 with U-251, in the assay with UO-31, with SF-295, in the assay on MOLT-4, in the assay on CCRF-CEM and in the assay on UACC-62 was > 100 µM (inactive) in each case. For the same molecule, the GI50 in the assay with UACC-257, in the assay with TK-10, with HL-60, in the assay on SF-539, in the assay on HOP-62 and with HCT-116 was > 100 µM (inactive) throughout. Besides, the GI50 in the assay on HOP-92 is > 100 µM (inactive).

`Cn1c(N)c(Cc2ccc(Cl)cc2)c(=O)[nH]c1=O`: the GI50 with 786-0, in the assay with SR, with OVCAR-8, with HT-29, in the assay with A549 and in the assay with OVCAR-3 was > 100 µM (inactive) throughout. The GI50 with UO-31, in the assay on SF-295, in the assay on MOLT-4, with CCRF-CEM, in the assay on UACC-62 and with UACC-257 was > 100 µM (inactive) in each case. The GI50 in the assay with TK-10 was > 100 µM (inactive); with HL-60, > 100 µM (inactive); in the assay on SF-539, > 100 µM (inactive); with HOP-62, > 100 µM (inactive); in the assay with HCT-116 it was > 100 µM (inactive); in the assay on HOP-92, 89.7 µM (inactive).

For the molecule `O=[N+]([O-])c1ccc(C(c2c[nH]c3ccccc23)c2c[nH]c3ccccc23)cc1`, the GI50 with 786-0 is 14.3 µM (inactive); in the assay with SR, 4.5 µM (inactive); in the assay with OVCAR-8, 14.7 µM (inactive); in the assay on HT-29, 11.5 µM (inactive); in the assay on OVCAR-4, 12 µM (inactive); in the assay on A549, 6.82 µM (inactive). Besides, the GI50 was 1.94 µM (inactive) in the assay on OVCAR-3; 11.8 µM (inactive) in the assay on U-251; 10.9 µM (inactive) in the assay on UO-31; 22.6 µM (inactive) in the assay on SF-295; 9.66 µM (inactive) in the assay with MOLT-4; 0.309 µM (active) with CCRF-CEM. The GI50 was 10.5 µM (inactive) with UACC-62; 3.03 µM (inactive) in the assay on UACC-257; 12.7 µM (inactive) in the assay with TK-10; 17.7 µM (inactive) with HL-60; 16.4 µM (inactive) with SF-539; 13.5 µM (inactive) in the assay on HOP-62.

As to `CCOP(=O)(OCC)/C(C#N)=C/c1ccc(-c2cc(C(F)(F)F)cc(C(F)(F)F)c2)o1`, the GI50 is 12.2 µM (inactive) with 786-0; 7.43 µM (inactive) with SR; 16.2 µM (inactive) in the assay on OVCAR-8; 6.55 µM (inactive) with HT-29; 14.4 µM (inactive) in the assay with A549; 8.02 µM (inactive) with OVCAR-3. Besides, the GI50 with U-251 was 12 µM (inactive); with UO-31, 16.8 µM (inactive); in the assay on SF-295 it was 1.82 µM (inactive); with MOLT-4, 3.71 µM (inactive); with CCRF-CEM, 9.75 µM (inactive); in the assay with UACC-257, 16.3 µM (inactive). Moreover, the GI50 in the assay with TK-10 is 16.4 µM (inactive); with HL-60, 3.4 µM (inactive); with SF-539 it was 14.9 µM (inactive); in the assay with HOP-62, 14.5 µM (inactive); in the assay on HCT-116, 13.2 µM (inactive); with HOP-92 it was 8.41 µM (inactive).

On to `COC(=O)[C@H](Cc1c[nH]c2ccccc12)NC(=O)c1ccc(CNC(=O)/C(C)=C/c2ccccc2)cc1`, for which the GI50 in the assay on 786-0 is > 100 µM (inactive); with SR it was 28.6 µM (inactive); in the assay with OVCAR-8, 66.7 µM (inactive); in the assay on HT-29, > 100 µM (inactive); in the assay with OVCAR-4 it was 30.3 µM (inactive); with A549, 75.7 µM (inactive). Moreover, the GI50 was 28.6 µM (inactive) in the assay with OVCAR-3; 80 µM (inactive) in the assay with U-251; 63.7 µM (inactive) in the assay with UO-31; 60.1 µM (inactive) in the assay with SF-295; 21.5 µM (inactive) with MOLT-4; 41 µM (inactive) with CCRF-CEM. In addition, the GI50 with UACC-62 was 20.9 µM (inactive); in the assay on UACC-257 it was 18 µM (inactive); in the assay on TK-10, 29.6 µM (inactive); with SF-539, > 100 µM (inactive); in the assay with HOP-62, 92.5 µM (inactive); with HCT-116 it was 71.4 µM (inactive). In addition, the GI50 in the assay on HOP-92 was 16 µM (inactive).
